# Data taken from patent US7737167B2, “2-amino benzimidazole derivatives and their use as modulators of small-conductance calcium-activated potassium channels” (Neurosearch A/S, priority 2004, dated 2010).
# Where a name gives a salt, the structure may show the parent alone.
row,melting point,Structure (SMILES)
1,153.5 to 154.5 °C,"c1ccc(C(CNc2nc3ccccc3[nH]2)c2ccccc2)cc1 (as salt: HCl) [Example 1, N-(Benzimidazol-2-yl)-2,2-diphenylethylamine]"
2,136.5 to 137.5 °C,"c1ccc(C(CCNc2nc3ccccc3[nH]2)c2ccccc2)cc1 (as salt: HCl) [Example 4, N-(Benzimidazol-2-yl)-3,3-diphenylpropylamine]"
3,276 °C,"CC1CCC(Nc2nc3ccccc3[nH]2)c2ccccc21 (stereo not shown) (as salt: HCl) [Example 20, N-(Benzimidazol-2-yl)-4-methyl-1,2,3,4-tetrahydro-1-naphthylamine]"
4,155 to 157 °C,"Fc1ccc(C(CNc2nc3ccccc3[nH]2)c2ccc(F)cc2)cc1 [Example 2, N-(Benzimidazol-2-yl)-2,2-bis(4-fluorophenyl)ethylamine]"
5,189 to 190 °C,"Clc1ccc(C(CNc2nc3ccccc3[nH]2)c2ccc(Cl)cc2)cc1 [Example 3, N-(Benzimidazol-2-yl)-2,2-bis(4-chlorophenyl)ethylamine]"
6,246 to 249 °C,"c1ccc2c(c1)CC(Nc1nc3ccccc3[nH]1)C2 [Example 6, N-(Benzimidazol-2-yl)-2-indanylamine]"
7,207 to 208 °C,"Fc1ccc2c(c1)CCC2Nc1nc2ccccc2[nH]1 (stereo not shown) [Example 7, N-(Benzimidazol-2-yl)-5-fluoro-1-indanylamine]"
8,242 to 243 °C,"Clc1ccc2c(c1)CCC2Nc1nc2ccccc2[nH]1 (stereo not shown) [Example 8, N-(Benzimidazol-2-yl)-5-chloro-1-indanylamine]"
9,242 to 243 °C,"Brc1ccc2c(c1)CCC2Nc1nc2ccccc2[nH]1 (stereo not shown) [Example 9, N-(Benzimidazol-2-yl)-5-bromo-1-indanylamine]"
10,255 to 258 °C,"c1ccc(C(Nc2nc3ccccc3[nH]2)c2ccccc2)cc1 [Example 11, N-(Benzimidazol-2-yl)benzhydrylamine]"
11,180 to 184 °C,"Clc1ccc(C(Nc2nc3ccccc3[nH]2)c2ccccc2)cc1 (stereo not shown) [Example 12, N-(Benzimidazol-2-yl)-4-chlorobenzhydrylamine]"
12,176 to 180 °C,"Clc1ccc(C(Nc2nc3ccccc3[nH]2)c2ccc(Cl)cc2)cc1 [Example 13, N-(Benzimidazol-2-yl)-4,4′-dichlorobenzhydrylamine]"
13,241 to 243 °C,"Fc1ccc(C(Nc2nc3ccccc3[nH]2)c2ccc(F)cc2)cc1 [Example 14, N-(Benzimidazol-2-yl)-4,4′-difluorobenzhydrylamine]"
14,203 to 205 °C,"c1ccc2c(c1)CCCCC2Nc1nc2ccccc2[nH]1 (stereo not shown) [Example 15, N-(Benzimidazol-2-yl)-6,7,8,9-tetrahydro-5H-benzocyclohepten-5-ylamine]"
15,256 to 257 °C,"CC1CCc2ccccc2C1Nc1nc2ccccc2[nH]1 (stereo not shown) [Example 18, N-(Benzimidazol-2-yl)-2-methyl-1,2,3,4-tetrahydro-1-naphthylamine]"
16,250 to 252 °C,"Cc1cc(C)c2c(c1)C(Nc1nc3ccccc3[nH]1)CCC2 (stereo not shown) [Example 19, N-(Benzimidazol-2-yl)-5,7-dimethyl-1,2,3,4-tetrahydro-1-naphthylamine]"
17,121 to 124 °C,"Cc1cc2nc(N[C@@H]3CCCc4ccccc43)[nH]c2cc1C [Example 23, (R)-N-(5,6-Dimethylbenzimidazol-2-yl)-1,2,3,4-tetrahydro-1-naphthylamine]"
18,220 to 221 °C,"Fc1ccc2nc(NC3CCCc4ccccc43)[nH]c2c1 (stereo not shown) [Example 24, N-(5-Fluorobenzimidazol-2-yl)-1,2,3,4-tetrahydro-1-naphthylamine]"
19,181 °C,"Fc1ccc2c(c1)C(Nc1nc3ccccc3[nH]1)CCC2 (stereo not shown) [Example 26, N-(Benzimidazol-2-yl)-7-fluoro-1,2,3,4-tetrahydro-1-naphthylamine]"
